These results are taken from patent US11207312B2, “Metallo-beta-lactamase inhibitors and methods of use thereof” (priority 2017, dated 2021).

The target of one data set is NDM-1 (Klebsiella pneumoniae, UniProt C7C422). Briefly: biochemical. The settings on record: CCF2-FA fluorescence assay, 2 hours at 25° C. It counts as biochemical. A digest of the protocol: (§1)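 IC50s come from 4-parameter fits of inhibition versus inhibitor concentration, tested from 20 μM down to 0.00063 μM. Enzyme, CCF2-FA (1.25 μM) and inhibitor react 2 h at 25° C, pH 7, with 10 μM ZnSO4 and 0.005% Tween-20.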
NDM-1, sequence (C7C422 whole entry, looked up, species assumed): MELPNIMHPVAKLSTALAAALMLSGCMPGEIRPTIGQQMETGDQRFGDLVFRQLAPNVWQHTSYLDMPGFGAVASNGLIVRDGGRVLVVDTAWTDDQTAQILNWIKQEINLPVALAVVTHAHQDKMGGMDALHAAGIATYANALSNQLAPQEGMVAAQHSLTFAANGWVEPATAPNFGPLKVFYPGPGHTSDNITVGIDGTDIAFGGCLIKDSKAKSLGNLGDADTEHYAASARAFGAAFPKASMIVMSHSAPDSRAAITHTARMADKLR

Another data set addresses IMP-1 (Serratia marcescens, UniProt P52699). Kind of data set: biochemical. The settings on record: CCF2-FA fluorescence assay, 2 hours at 25° C.; read-out: IMP1 IC50. The gist of the method:
as §1

A further data set has as its target VIM-1 (Pseudomonas aeruginosa (strain ATCC 15692 / DSM 22644 / CIP 104116 / JCM 14847 / LMG 12228 / 1C / PRS 101 / PAO1), UniProt A0A0F7KYQ8). Kind of data set: biochemical. The note with it: CCF2-FA fluorescence assay, 2 hours at 25° C.; read-out: VIM1 IC50. The gist of the method:
as §1

The next data set concerns the target VIM-2 (Escherichia coli, UniProt Q5U7L7). Kind of data set: biochemical. The settings on record: CCF2-FA fluorescence assay; read-out: VIM2 IC50.
The subject of data set [1] is Escherichia coli expressing NDM-1 (CLB30016). The class given is cell-based. The note with it: with imipenem 1 μg/ml; 95% inhibition of bacterial growth. A digest of the protocol:
(§2)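 MITC95 denotes the minimal test-compound level that, combined with 1 μg/ml imipenem, blocks 95% of bacterial growth, measured by absorbance. Overnight-grown clinical isolates were diluted 1:100 in CAMHB and incubated with both agents at 35° C for 22–24 h.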

Data set [2] relates to Klebsiella pneumoniae expressing VIM-1 (IHMA599644). The class given is cell-based. The note with it: with imipenem 1 μg/ml; 95% inhibition of bacterial growth. A digest of the protocol: as §2
Data set [3] relates to Serratia marcescens expressing IMP-1 (CL5741). The class given is cell-based. The settings on record: with imipenem 1 μg/ml; 95% inhibition of bacterial growth. A digest of the protocol:
as §2

In data set [4] the test system is P. aeruginosa MB9798 (efflux+, IMP-1 plasmid). The settings on record: for MB9798 MITC95 P. aeruginosa uM Efflux WT: efflux + (MB9798) strain, imipenem at 2 μg/mL, in the presence of a class A, C, D serine β-lactamase inhibitor closely related to relebactam; for Efflux ratio: fold difference between efflux+ (MB9798) and efflux− (MB9799) strains. The gist of the method: (§3)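 PAO1-derived isogenic pair (oprD+, inducible AmpC), efflux+ MB5919 or efflux− MB5890 parent, carrying an electroporated IMP-1 plasmid from a clinical isolate. Microbroth MIC with fixed imipenem and/or ceftazidime (usually CLSI breakpoint) plus fixed class A/C inhibitor; MBL inhibitor serially titrated, concentration restoring susceptibility recorded.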

Data set [5] deals with P. aeruginosa MB9799 (efflux-, IMP-1 plasmid). It counts as cell-based, Pseudomonas aeruginosa. The settings on record: efflux − (MB9799) strain; imipenem at 2 μg/mL; in the presence of a class A, C, D serine β-lactamase inhibitor closely related to relebactam. A digest of the protocol:
as §3

Structures are written as SMILES.

IMP-1, sequence (P52699 whole entry, looked up, species assumed): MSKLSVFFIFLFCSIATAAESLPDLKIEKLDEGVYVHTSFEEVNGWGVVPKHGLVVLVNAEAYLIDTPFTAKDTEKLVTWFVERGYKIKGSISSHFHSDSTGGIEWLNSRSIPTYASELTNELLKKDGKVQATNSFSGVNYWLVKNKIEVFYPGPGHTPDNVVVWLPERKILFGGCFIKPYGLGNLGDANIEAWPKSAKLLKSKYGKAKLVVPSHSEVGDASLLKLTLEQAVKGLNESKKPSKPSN

As a reminder, the IC50 is the point on the concentration scale where inhibition reaches its midpoint. With `COC1(CN(C)C)CN(c2ccc(S(=O)(=O)N[C@@H]3CCNC3)c(S(N)(=O)=O)c2-c2nnn[nH]2)C1` [Example 116, 4-{3-[(dimethylamino)methyl]-3-methoxyazetidin-1-yl}-N1-[(3R)-pyrrolidin-3-yl]-3-(1H-tetrazol-5-yl)benzene-1,2-disulfonamide], the half-maximal inhibitory concentration (IC50) against NDM-1 is 29.3 nM; at IMP-1, 4.62 nM; at VIM-1, 6.97 nM; on VIM-2, 63.9 nM. Besides, the “CLB30016 E. coli MITC95 NDM” value in [1] was determined as 1.56 µM. Moreover, in data set [2], the “IHMA599644 K. pneumoniae MITC95 VIM” value was 3.13 µM. Also, the “CL5741 S. marcescens MITC95 IMP” value in data set [3] was 1.56 µM. Moreover, in data set [4], the “MB9798 MITC95 P. aeruginosa uM Efflux WT” value amounted to 3.13 µM. Besides, the Efflux ratio in data set [4] was found to be 2.00. The “MB9799 MITC95 P. aeruginosa uM Efflux Mutant” value in data set [5] was found to be 1.56 µM.
On to `CS(=O)(=O)CCN1CCN(c2ccc(S(=O)(=O)NC[C@H](O)CN)c(S(N)(=O)=O)c2-c2nn[nH]n2)CC1` [Example 117, (R)—N1-(3-amino-2-hydroxypropyl)-4-(4-(2-(methylsulfonyl)ethyl)piperazin-1-yl)-3-(2H-tetrazol-5-yl)benzene-1,2-disulfonamide], for which the 50% inhibitory concentration (IC50) on NDM-1 worked out at 0.94 nM; on IMP-1, 0.55 nM; on VIM-1, 2.58 nM; at VIM-2, 2.28 nM. For the same molecule, in [1], the “CLB30016 E. coli MITC95 NDM” value amounted to 3.13 µM. In data set [2], the “IHMA599644 K. pneumoniae MITC95 VIM” value came out at 6.25 µM. The “CL5741 S. marcescens MITC95 IMP” value in data set [3] worked out at 0.78 µM. In [4], the “MB9798 MITC95 P. aeruginosa uM Efflux WT” value was determined as 12.50 µM. For the same molecule, in data set [4], the Efflux ratio turned out to be 4.00. The “MB9799 MITC95 P. aeruginosa uM Efflux Mutant” value in [5] was found to be 3.13 µM.
Regarding `NC[C@@H](O)CNS(=O)(=O)c1ccc(N2CCC(C(N)=O)C2)c(-c2nn[nH]n2)c1S(N)(=O)=O` (stereo partly drawn) [Example 118, 1-(4-(N—((R)-3-amino-2-hydroxypropyl)sulfamoyl)-3-sulfamoyl-2-(2H-tetrazol-5-yl)phenyl)pyrrolidine-3-carboxamide], the IC50 against NDM-1 is 1.55 nM; at IMP-1, 1.25 nM; at VIM-1, 1.2 nM; at VIM-2 it was 2.44 nM. In [1], the “CLB30016 E. coli MITC95 NDM” value came out at 1.56 µM. In data set [2], the “IHMA599644 K. pneumoniae MITC95 VIM” value was determined as 3.13 µM. The “CL5741 S. marcescens MITC95 IMP” value in data set [3] is 1.56 µM. The “MB9798 MITC95 P. aeruginosa uM Efflux WT” value in data set [4] was determined as 1.56 µM. The Efflux ratio in [4] is given as 1.00. The “MB9799 MITC95 P. aeruginosa uM Efflux Mutant” value in data set [5] is 1.56 µM.
As to `NCC(=O)N1CCN(c2ccc(S(=O)(=O)NC[C@H](O)CN)c(S(N)(=O)=O)c2-c2nn[nH]n2)CC1` [Example 119, (R)—N1-(3-amino-2-hydroxypropyl)-4-(4-(2-aminoacetyl)piperazin-1-yl)-3-(2H-tetrazol-5-yl)benzene-1,2-disulfonamide], the half-maximal inhibitory concentration (IC50) was 3.45 nM at NDM-1, 6.56 nM on IMP-1, 0.57 nM on VIM-1 and 10.1 nM at VIM-2. In data set [1], the “CLB30016 E. coli MITC95 NDM” value stood at 0.78 µM. Also, the “IHMA599644 K. pneumoniae MITC95 VIM” value in data set [2] amounted to 1.56 µM. For the same molecule, in data set [3], the “CL5741 S. marcescens MITC95 IMP” value came out at 0.78 µM. Further, in data set [4], the “MB9798 MITC95 P. aeruginosa uM Efflux WT” value came out at 1.56 µM. The Efflux ratio in [4] came to 2.00. In data set [5], the “MB9799 MITC95 P. aeruginosa uM Efflux Mutant” value stood at 0.78 µM.
As to `NC[C@@H](O)CNS(=O)(=O)c1ccc(N2CCC(O)CC2)c(-c2nn[nH]n2)c1S(N)(=O)=O` [Example 120, (R)-N1-(3-amino-2-hydroxypropyl)-4-(4-hydroxypiperidin-1-yl)-3-(2H-tetrazol-5-yl)benzene-1,2-disulfonamide], the concentration for half-maximal inhibition (IC50) was determined as 0.56 nM against NDM-1, 0.76 nM at IMP-1, 0.26 nM at VIM-1 and 0.79 nM on VIM-2. For the same molecule, in data set [1], the “CLB30016 E. coli MITC95 NDM” value is 1.56 µM. The “IHMA599644 K. pneumoniae MITC95 VIM” value in data set [2] came out at 3.13 µM. In addition, the “CL5741 S. marcescens MITC95 IMP” value in data set [3] was 1.56 µM. The “MB9798 MITC95 P. aeruginosa uM Efflux WT” value in data set [4] is 1.56 µM. For the same molecule, the Efflux ratio in [4] was 1.00. Besides, the “MB9799 MITC95 P. aeruginosa uM Efflux Mutant” value in data set [5] amounted to 1.56 µM.
On to `NC[C@@H](O)CNS(=O)(=O)c1ccc(N2CC[C@@H](CN)C2)c(-c2nn[nH]n2)c1S(N)(=O)=O` [Example 121, N1-((R)-3-amino-2-hydroxypropyl)-4-((S)-3-(aminomethyl)pyrrolidin-1-yl)-3-(2H-tetrazol-5-yl)benzene-1,2-disulfonamide], for which the IC50 came to 58.7 nM against NDM-1, 66.8 nM at IMP-1, 4.54 nM on VIM-1 and 30.4 nM at VIM-2. Moreover, in data set [1], the “CLB30016 E. coli MITC95 NDM” value was found to be 1.56 µM. The “IHMA599644 K. pneumoniae MITC95 VIM” value in [2] came to 0.78 µM. The “CL5741 S. marcescens MITC95 IMP” value in data set [3] was 1.56 µM. Further, the “MB9798 MITC95 P. aeruginosa uM Efflux WT” value in data set [4] worked out at 6.25 µM. Moreover, the Efflux ratio in data set [4] is recorded as 2.00. In addition, in [5], the “MB9799 MITC95 P. aeruginosa uM Efflux Mutant” value is 3.13 µM.
Take `NC[C@@H](O)CNS(=O)(=O)c1ccc(N2CCNC(CO)C2)c(-c2nn[nH]n2)c1S(N)(=O)=O` (stereo partly drawn) [Example 122, N1-((R)-3-amino-2-hydroxypropyl)-4-(3-(hydroxymethyl)piperazin-1-yl)-3-(2H-tetrazol-5-yl)benzene-1,2-disulfonamide]: the IC50 at NDM-1 was 14.3 nM; on IMP-1, 24.4 nM; at VIM-1, 3.34 nM; at VIM-2 it was 6.86 nM. Further, in data set [1], the “CLB30016 E. coli MITC95 NDM” value was 0.20 µM. In addition, the “IHMA599644 K. pneumoniae MITC95 VIM” value in [2] came to 0.78 µM. Also, the “CL5741 S. marcescens MITC95 IMP” value in data set [3] stood at 0.39 µM. The “MB9798 MITC95 P. aeruginosa uM Efflux WT” value in data set [4] came to 1.56 µM. The Efflux ratio in [4] is recorded as 2.00. Moreover, in [5], the “MB9799 MITC95 P. aeruginosa uM Efflux Mutant” value was found to be 0.78 µM.
As to `NC[C@@H](O)CNS(=O)(=O)c1ccc(N2CCC(CNCCO)CC2)c(-c2nn[nH]n2)c1S(N)(=O)=O` [Example 123, (R)-N1-(3-amino-2-hydroxypropyl)-4-(4-(((2-hydroxyethyl)amino)methyl)piperidin-1-yl)-3-(2H-tetrazol-5-yl)benzene-1,2-disulfonamide], the IC50 amounted to 10.8 nM on NDM-1, 6.18 nM on IMP-1, 0.25 nM on VIM-1 and 7.51 nM at VIM-2. In addition, the “CLB30016 E. coli MITC95 NDM” value in data set [1] amounted to 0.39 µM. For the same molecule, the “IHMA599644 K. pneumoniae MITC95 VIM” value in [2] is 1.56 µM. Further, the “CL5741 S. marcescens MITC95 IMP” value in data set [3] is 0.39 µM. The “MB9798 MITC95 P. aeruginosa uM Efflux WT” value in data set [4] came to 1.56 µM. Besides, in [4], the Efflux ratio worked out at 2.00. Further, the “MB9799 MITC95 P. aeruginosa uM Efflux Mutant” value in [5] worked out at 0.78 µM.
For `NC[C@@H](O)CNS(=O)(=O)c1ccc(N2CC[C@@H](N)C2)c(-c2nn[nH]n2)c1S(N)(=O)=O` [Example 125, N1-((R)-3-amino-2-hydroxypropyl)-4-((R)-3-aminopyrrolidin-1-yl)-3-(2H-tetrazol-5-yl)benzene-1,2-disulfonamide], the IC50 against NDM-1 was found to be 88.1 nM; on IMP-1, 61.4 nM; on VIM-1, 10.9 nM; at VIM-2 it was 53.9 nM. The “CLB30016 E. coli MITC95 NDM” value in data set [1] was found to be 0.78 µM. Also, in data set [2], the “IHMA599644 K. pneumoniae MITC95 VIM” value turned out to be 1.56 µM. In addition, the “CL5741 S. marcescens MITC95 IMP” value in data set [3] was 3.13 µM. For the same molecule, the “MB9798 MITC95 P. aeruginosa uM Efflux WT” value in [4] was 6.25 µM. In data set [4], the Efflux ratio is recorded as 2.00. In addition, the “MB9799 MITC95 P. aeruginosa uM Efflux Mutant” value in data set [5] came to 3.13 µM.
In the case of `NC[C@@H](O)CNS(=O)(=O)c1ccc(N2CC[C@H](N)C2)c(-c2nn[nH]n2)c1S(N)(=O)=O` [Example 126, N1-((R)-3-amino-2-hydroxypropyl)-4-((S)-3-aminopyrrolidin-1-yl)-3-(2H-tetrazol-5-yl)benzene-1,2-disulfonamide], the 50% inhibitory concentration (IC50) against NDM-1 came out at 200 nM; at IMP-1 it was 124 nM; at VIM-1, 7.7 nM; on VIM-2, 32.5 nM. For the same molecule, the “CLB30016 E. coli MITC95 NDM” value in [1] was 1.56 µM. Further, the “IHMA599644 K. pneumoniae MITC95 VIM” value in data set [2] amounted to 0.78 µM. Besides, the “CL5741 S. marcescens MITC95 IMP” value in data set [3] is 3.13 µM. Besides, in [4], the “MB9798 MITC95 P. aeruginosa uM Efflux WT” value is 6.25 µM. Also, the Efflux ratio in data set [4] was 2.00. The “MB9799 MITC95 P. aeruginosa uM Efflux Mutant” value in data set [5] came to 3.13 µM.
